{
  "source": "patent US20100041672A1",
  "about": "“USE OF QUINOLINE DERIVATIVES IN THE TREATMENT OF PAIN AND IRRITABLE BOWEL SYNDROME” (GLAXO GROUP LIMITED, priority 2007, published 2010)",
  "key": {"Random Hooded rats": {"tested_on": "Random Hooded rats", "assay": "rat joint pain model of chronic inflammatory pain (intra-articular FCA, hind paw weight bearing)", "assay_type": "in vivo", "details": "for Statistics for hypersensitivity data (weight bearing), significance vs vehicle, Day 17: Day 17 post FCA; for Statistics for hypersensitivity data (weight bearing), significance vs vehicle, Day 15: Day 15 post FCA; for Statistics for hypersensitivity data (weight bearing), significance vs vehicle, Day 14: Day 14 post FCA; for effect on hypersensitivity in the joint pain model of chronic inflammatory pain: once daily oral dosing days 13-17 post intra-articular FCA; for Statistics for hypersensitivity data (weight bearing), significance vs vehicle, Day 13: Day 13 post FCA; for Statistics for hypersensitivity data (weight bearing), significance vs vehicle, Day 16: Day 16 post FCA", "description": "Random Hooded rats, 150-180 g, obtained from Charles River UK, were anaesthetised under gaseous anaesthetic and the area surrounding the left and right knee joint shaved and cleaned as for aseptic surgery. Animals were injected with 150 μl of FCA into the left knee joint (intra-articular injection). Animals were immediately allowed to recover from anaesthetic in a warmed/oxygenated environment until being returned to their home cage on paper bedding. No further post-op care was provided.\nRats were tested prior to surgery and from 18 h post FCA (minimum of once weekly) for weight bearing (g) and joint diameter (mm). Weight bearing is measured by the animal's ability to place body weight across both hind paws on a Dual Channel Weight Averager which was calibrated each day prior to use using a 10 g weight (Rat capacitance tester—Linton Instruments). Hind paw weight bearing data was calculated and expressed as the percentage of the contralateral paw.\nAll data were expressed as mean±s.e.m.\nPrior to FCA intra-articular injection into the left knee, rats display even weight bearing. By day 1 post-insult weight bearing had shifted such that the majority of the body weight was transmitted through the contralateral limb. By day 10 this effect was maintained and at this point animals were randomised across treatment groups. Once daily dosing with vehicle, SB742457 or celecoxib began on day 13 and continued up to and including day 17.\nRats were tested prior to surgery and from 18 h post FCA (minimum of once weekly) for weight bearing (g) and joint diameter (mm). Weight bearing is measured by the animal's ability to place body weight across both hind paws on a Dual Channel Weight Averager which was calibrated each day prior to use using a 100 g weight (Rat capacitance tester—Linton Instruments). Hind paw weight bearing data was calculated and expressed as the percentage of the contralateral paw.\nPrior to FCA intra-articular injection into the left knee, rats display even weight bearing. By day 1 post-insult weight bearing had shifted such that the majority of the body weight was transmitted through the contralateral limb. By day 10 this effect was maintained and at this point animals were randomised across treatment groups. Once daily dosing with vehicle, SB792988A or celecoxib began on day 13 and continued up to and including day 17. […] AUC was calculated using Microsoft Excel."}, "rats": {"tested_on": "rats", "assay": "Chronic Constriction Injury (CCI) model of neuropathic pain in rats (mechanical allodynia, Von Frey hairs)", "assay_type": "in vivo, rat", "details": "10 mg/kg b.i.d. po", "description": "Under Isoflurane anaesthesia, the sciatic nerve in the left leg of the rat was exposed at mid thigh level and 4 loose ligatures of Chromic 4.0 gut tied around it. The wound was closed and secured with staples. The Sham operated animals underwent the same surgical technique except that the nerve was not ligated. […] The presence of mechanical (tactile) allodynia was assessed using the manual application of Von Frey hair monofilaments (Stoelting, Wood Dale, Ill., USA). Animals were placed in clear Perspex boxes on a raised perforated metallic platform, from below which the monofilaments were applied in ascending order to the plantar region of the hind paw (range: 1.4 g-26 g). Each hair was applied for approx. 3-5 seconds until a withdrawal response was observed. The lowest hair to give a withdrawal was recorded as the response after confirmation with reapplication of lower and/or higher hairs within the range tested.\nAll data are expressed as mean±s.e.m. Statistical analysis was carried out using Repeated Measures ANOVA (Statistica Version 6) to compare the vehicle treated groups with the drug treated groups (P<0.05 considered significant). Area Under Curve (AUC) calculations were performed within Excel and statistical analysis was carried out using a one-way ANOVA followed by Fischer LSD post-hoc test (Statistica Version 6) to compare the vehicle treated CCI and Sham groups with the drug treated groups (P<0.05 considered significant). Data recorded in Excel (Microsoft XP) and graphs produced in GraphPad Prism (Version 4).\nBy 8 days post-surgery neuropathy was beginning to develop as mechanical allodynia (assessed using mVFHs) was evident in all CCI operated groups compared to the Sham operated animals. This was maintained as a stable baseline until day 23 post-surgery (FIG. 12), when the animals were randomised and then chronically dosed with either SB742457 (10 mg/kg b.i.d. po), gabapentin (30 mg/kg b.i.d. po) or vehicle (1% methylcellulose; b.i.d. po) for 8 days (days 26-33 post-surgery). […] Three days after cessation of treatment the withdrawal thresholds of the drug treated groups had decreased back towards vehicle treated baseline levels."}, "[1]": {"details": "1 mg/kg oral once daily from day 13"}, "[2]": {"details": "10 mg/kg oral once daily from day 13"}, "[3]": {"details": "0.1 mg/kg oral once daily from day 13, SB792988A study"}, "[4]": {"details": "1 mg/kg oral once daily from day 13, SB792988A study"}, "[5]": {"details": "3 mg/kg oral once daily from day 13, SB792988A study"}, "[6]": {"details": "10 mg/kg oral once daily from day 13, SB792988A study"}},
  "note": "“Also recorded” adds a separate entry of the source.",
  "data": [
    {"smiles": "O=S(=O)(c1ccccc1)c1cnc2c(N3CCNCC3)cccc2c1", "note": "[SB742457, 3-Phenylsulfonyl-8-piperazin-1-yl-quinoline]", "values": [
      {"measurement": "Statistics for hypersensitivity data (weight bearing), significance vs vehicle, Day 17", "setting": "Random Hooded rats; 0.1 mg/kg oral once daily from day 13", "value": "** (** = p < 0.01)"},
      {"measurement": "Statistics for hypersensitivity data, significance vs vehicle, AUC", "setting": "Random Hooded rats; 1 mg/kg oral once daily days 13-17", "value": "*** (*** = p < 0.001)"},
      {"measurement": "Statistics for hypersensitivity data (weight bearing), significance vs vehicle, Day 15", "setting": "Random Hooded rats; [1]", "value": "*** (*** = p < 0.001)"},
      {"measurement": "Statistics for hypersensitivity data (weight bearing), significance vs vehicle, Day 17", "setting": "Random Hooded rats; [1]", "value": "*** (*** = p < 0.001)"},
      {"measurement": "Statistics for hypersensitivity data, significance vs vehicle, AUC", "setting": "Random Hooded rats; 10 mg/kg oral once daily days 13-17", "value": "*** (*** = p < 0.001)"},
      {"measurement": "Statistics for hypersensitivity data (weight bearing), significance vs vehicle, Day 14", "setting": "Random Hooded rats; [2]", "value": "** (** = p < 0.01)"},
      {"measurement": "Statistics for hypersensitivity data (weight bearing), significance vs vehicle, Day 15", "setting": "Random Hooded rats; [2]", "value": "*** (*** = p < 0.001)"},
      {"measurement": "Statistics for hypersensitivity data (weight bearing), significance vs vehicle, Day 17", "setting": "Random Hooded rats; [2]", "value": "*** (*** = p < 0.001)"},
      {"measurement": "separation from vehicle", "setting": "Random Hooded rats; all doses above and including 0.1 mg/kg", "value": "significant separation from vehicle on at least one day"},
      {"measurement": "effect compared with the positive control, celecoxib", "setting": "Random Hooded rats; highest dose of 10 mg/kg vs 30 mg/kg celecoxib", "value": "not statistically different"},
      {"measurement": "effect on hypersensitivity in the joint pain model of chronic inflammatory pain", "setting": "Random Hooded rats", "value": "reversed hypersensitivity"},
      {"measurement": "reversal of mechanical allodynia after 5 days of dosing", "setting": "rats; after 5 days of dosing", "value": "not significantly different to Sham levels; also recorded: maximal reversal back to Sham levels"},
      {"measurement": "reversal of mechanical allodynia after 8 days of dosing", "setting": "rats; after 8 days of dosing", "value": "maximal reversal (P<0.001) back to Sham levels"},
      {"measurement": "time to significant reversal of CCI-induced mechanical allodynia", "setting": "rats; after a single dose", "value": "≤ 1", "unit": "h"},
      {"measurement": "comparison with the positive control gabapentin (30 mg/kg b.i.d. po)", "setting": "rats; throughout the study", "value": "not significantly different to each other"}
    ]},
    {"smiles": "Cl.O=S(=O)(c1cccc(F)c1)c1cnc2c(N3CCNCC3)cccc2c1", "note": "[SB792988A, 3-[(3-Fluorophenyl)sulfonyl]-8-(1-piperazinyl)quinoline Hydrochloride]", "values": [
      {"measurement": "Statistics for hypersensitivity data (weight bearing), significance vs vehicle, Day 13", "setting": "Random Hooded rats; [3]", "value": "* (* = p < 0.05)"},
      {"measurement": "Statistics for hypersensitivity data (weight bearing), significance vs vehicle, Day 17", "setting": "Random Hooded rats; [3]", "value": "* (* = p < 0.05)"},
      {"measurement": "Statistics for hypersensitivity data (weight bearing), significance vs vehicle, Day 14", "setting": "Random Hooded rats; [4]", "value": "* (* = p < 0.05)"},
      {"measurement": "Statistics for hypersensitivity data (weight bearing), significance vs vehicle, Day 17", "setting": "Random Hooded rats; [4]", "value": "* (* = p < 0.05)"},
      {"measurement": "Statistics for hypersensitivity data (weight bearing), significance vs vehicle, Day 13", "setting": "Random Hooded rats; [5]", "value": "** (** = p < 0.01)"},
      {"measurement": "Statistics for hypersensitivity data (weight bearing), significance vs vehicle, Day 15", "setting": "Random Hooded rats; [5]", "value": "*** (*** = p < 0.001)"},
      {"measurement": "Statistics for hypersensitivity data (weight bearing), significance vs vehicle, Day 16", "setting": "Random Hooded rats; [5]", "value": "* (* = p < 0.05)"},
      {"measurement": "Statistics for hypersensitivity data (weight bearing), significance vs vehicle, Day 17", "setting": "Random Hooded rats; [5]", "value": "*** (*** = p < 0.001)"},
      {"measurement": "Statistics for hypersensitivity data (weight bearing), significance vs vehicle, Day 14", "setting": "Random Hooded rats; [6]", "value": "*** (*** = p < 0.001)"},
      {"measurement": "Statistics for hypersensitivity data (weight bearing), significance vs vehicle, Day 15", "setting": "Random Hooded rats; [6]", "value": "*** (*** = p < 0.001)"},
      {"measurement": "Statistics for hypersensitivity data (weight bearing), significance vs vehicle, Day 16", "setting": "Random Hooded rats; [6]", "value": "*** (*** = p < 0.001)"},
      {"measurement": "Statistics for hypersensitivity data (weight bearing), significance vs vehicle, Day 17", "setting": "Random Hooded rats; [6]", "value": "*** (*** = p < 0.001)"},
      {"measurement": "separation from vehicle", "setting": "Random Hooded rats; all doses (0.1, 1, 3, 10 mg/kg)", "value": "significant separation from vehicle on various days"},
      {"measurement": "effect compared with the positive control, celecoxib", "setting": "Random Hooded rats; highest doses of 3 and 10 mg/kg vs 30 mg/kg celecoxib", "value": "not statistically different"},
      {"measurement": "effect on hypersensitivity in the joint pain model of chronic inflammatory pain", "setting": "Random Hooded rats", "value": "reversed hypersensitivity"}
    ]}
  ]
}
